Data published in patent US11117907B2, “Curcuminoid-inspired synthetic compounds as anti-tumor agents” (University of North Florida Board of Trustees, priority 2017, dated 2021).

| Structure (SMILES) | melting point |
| --- | --- |
| COc1cc(C=Cc2cc(C=Cc3cc(OC)c(OC)c(OC)c3)n(-c3ccccc3)n2)cc(OC)c1OC [compound 41 of FIG. 43, 3,5-bis-(3,4,5-Trimethoxy-styryl)-1-phenylpyrazole] | 144 to 146 °C |
| Fc1ccc(C=Cc2cc(C=Cc3ccc(F)cc3)n(-c3ccc(F)c(F)c3)n2)cc1 [compound 34 of FIG. 43, 3,5-bis-(4-Fluorostyryl)-1-(3,4-difluorophenyl)pyrazole] | 169 to 170 °C |
| COc1cc(F)c(C=Cc2cc(C=Cc3cc(OC)c(OC)cc3F)n(-c3cccc(C(F)(F)F)c3)n2)cc1OC [compound 24 of FIG. 43, 3,5-bis-(6-Fluoro-3,4-dimethoxystyryl)-1-(3-trifluoromethylphenyl)pyrazole] | 130 to 134 °C |
| COc1cc(/C=C/C(=O)/C(F)=C(O)/C=C/c2ccc(O)c(OC)c2)ccc1O [compound 4 of FIG. 2, (1E,4E,6E)-4-Fluoro-5-hydroxy-1,7-bis(4-hydroxy-3-methoxyphenyl)hepta-1,4,6-trien-3-one] | 154 to 155 °C |
| COc1ccc(/C=C/C(=O)C(F)(F)C(=O)/C=C/c2ccc(OC)c(OC)c2)cc1OC [compound 7 of FIG. 2, (1E,6E)-4,4-Difluoro-1,7-bis(3,4-dimethoxyphenyl)hepta-1,6-diene-3,5-dione] | 148 to 149 °C |
| O=C(/C=C/c1ccc(C(F)(F)F)cc1)/C(F)=C(O)/C=C/c1ccc(C(F)(F)F)cc1 [compound 22 of FIG. 2, (1E,4E,6E)-4-Fluoro-1,7-bis(4-trifluoromethyl-phenyl)-5-hydroxy-hepta-1,4,6-trien-3-one] | 144 to 146 °C |
| COc1cc(F)c(C=Cc2cc(C=Cc3cc(OC)c(OC)cc3F)n(-c3ccc(OC(F)(F)F)cc3)n2)cc1OC [compound 23 of FIG. 43, 3,5-bis-(6-Fluoro-3,4-dimethoxystyryl)-1-(4-trifluoromethoxyphenyl)pyrazole] | 80 to 83 °C |
| FC(F)(F)Sc1ccc(C=Cc2cc(C=Cc3ccc(SC(F)(F)F)cc3)on2)cc1 [compound 30 of FIG. 43, 3,5-bis-(4-Trifluoromethylthiostyryl)-isoxazole] | 165 to 167 °C |
| COc1cc(F)c(/C=C/C(=O)C(F)C(=O)/C=C/c2cc(OC)c(OC)cc2F)cc1OC [compound 18 of FIG. 2, (1E,6E)-4-Fluoro-1,7-bis(3,4-dimethoxy-6-fluorophenyl)hepta-1,6-diene-3,5-dione] | > 260 °C |
| O=C(/C=C/c1ccc(F)cc1)C(F)(F)C(=O)/C=C/c1ccc(F)cc1 [compound 12 of FIG. 2, (1E,6E)-4,4-Difluoro-1,7-bis(4-fluorophenyl)hepta-1,6-diene-3,5-dione] | 72 to 73 °C |
| O=C(/C=C/c1ccc(OCc2ccccc2)c(OCc2ccccc2)c1)/C=C(O)\C=C\c1ccc(OCc2ccccc2)c(OCc2ccccc2)c1 [compound 5 of FIG. 35, (1E,4E,6E)-5-Hydroxy-1,7-bis(3,4-dibenzyloxyphenyl)hepta-1,4,6-trien-3-one] | 150 to 153 °C |
| O=C(/C=C/c1ccc(F)cc1)/C(F)=C(O)/C=C/c1ccc(F)cc1 [compound 13 of FIG. 2, (1E,4E,6E)-4-Fluoro-1,7-bis(4-fluorophenyl)-5-hydroxy-hepta-1,4,6-trien-3-one] | 152 to 153 °C |
| O=C(/C=C/c1csc2ccccc12)/C=C(O)\C=C\c1csc2ccccc12 [compound 7 of Example 5, (1E,4E,6E)-5-Hydroxy-1,7-bis(benzo[b]thiophen-3-yl)hepta-1,4,6-trien-3-one] | 159 to 160 °C |
| COc1cc(F)c(/C=C/C(=O)/C(F)=C(O)/C=C/c2cc(OC)c(OC)cc2F)cc1OC [compound 17 of FIG. 2, (1E,4E,6E)-4-Fluoro-5-hydroxy-1,7-bis(3,4-dimethoxy-6-fluorophenyl)hepta-1,4,6-trien-3-one] | 148 to 150 °C |
| Fc1ccc(C=Cc2cc(C=Cc3ccc(F)cc3)n(-c3cccc(C(F)(F)F)c3)n2)cc1 [compound 33 of FIG. 43, 3,5-bis-(4-Fluorostyryl)-1-(3-trifluoromethylphenyl)pyrazole] | 98 to 100 °C |
| COc1ccc(/C=C/C(=O)/C=C(O)\C=C\c2ccc(OC)c(OC)c2OC)c(OC)c1OC [compound 7 of FIG. 35, (1E,4E,6E)-5-Hydroxy-1,7-bis(2,3,4-trimethoxyphenyl)hepta-1,4,6-trien-3-one] | 104 to 106 °C |
| COc1cc(C=Cc2cc(C=Cc3cc(OC)c(OC)c(OC)c3)n(-c3ccc(OC(F)(F)F)cc3)n2)cc(OC)c1OC [compound 42 of FIG. 43, 3,5-bis-(3,4,5-Trimethoxy-styryl)-1-(4-trifluoromethoxyphenyl) pyrazole] | 140 to 142 °C |
| COc1cc(F)c(C=Cc2cc(C=Cc3cc(OC)c(OC)cc3F)n(-c3ccc(C#N)cc3)n2)cc1OC [compound 26 of FIG. 43, 3,5-bis-(6-Fluoro-3,4-dimethoxystyryl)-1-(4-cyanophenyl)pyrazole] | 91 to 93 °C |
| O=C(/C=C/c1ccc(OC(F)(F)F)cc1)/C=C(O)\C=C\c1ccc(OC(F)(F)F)cc1 [compound 17 of FIG. 35, (1E,4E,6E)-5-Hydroxy-1,7-bis(4-trifluoromethoxyphenyl)hepta-1,4,6-trien-3-one] | 108 to 111 °C |

| Structure (SMILES) | melting point |
| --- | --- |
| COc1cc(F)c(/C=C/C(=O)C(F)(F)C(=O)/C=C/c2cc(OC)c(OC)cc2F)cc1OC [compound 16 of FIG. 2, (1E,6E)-4,4-Difluoro-1,7-bis(3,4-dimethoxy-6-fluorophenyl)hepta-1,6-diene-3,5-dione] | 162 to 163 °C |
| FC(F)(F)c1ccc(C=Cc2cc(C=Cc3ccc(C(F)(F)F)cc3)n(-c3ccccc3)n2)cc1 [compound 37 of FIG. 43, 3,5-bis-(4-Trifluoromethylstyryl)-1-phenylpyrazole] | 137 to 139 °C |
| O=C(/C=C/c1ccc(C(F)(F)F)cc1)/C=C(O)\C=C\c1ccc(C(F)(F)F)cc1 [compound 20 of FIG. 2, (1E,4E,6E)-1,7-Bis(4-trifluoromethyl-phenyl)-5-hydroxy-hepta-1,4,6-trien-3-one] | 153 to 154 °C |
| COc1ccc(/C=C/C(=O)/C=C(O)\C=C\c2ccc(OC)c(OCc3ccccc3)c2)cc1OCc1ccccc1 [compound 3 of FIG. 35, (1E,4E,6E)-5-Hydroxy-1,7-bis(3-benzyloxy-4-methoxyphenyl)hepta-1,4,6-trien-3-one] | 153 to 155 °C |
| O=C(/C=C/c1ccc(C(F)(F)F)cc1)C(F)(F)C(=O)/C=C/c1ccc(C(F)(F)F)cc1 [compound 21 of FIG. 2, (1E,6E)-4,4-Difluoro-1,7-bis(4-trifluoromethyl-phenyl)hepta-1,6-diene-3,5-dione] | 75 to 76 °C |
| COc1cc(F)c(/C=C/C(=O)/C=C(O)\C=C\c2cc(OC)c(OC)cc2F)cc1OC [compound 15 of FIG. 2, (1E,4E,6E)-5-Hydroxy-1,7-bis(3,4-dimethoxy-6-fluorophenyl)hepta-1,4,6-trien-3-one] | 154 to 156 °C |
| O=C(/C=C/c1cc2ccccc2o1)/C=C(O)\C=C\c1cc2ccccc2o1 [compound 9 of Example 5, (1E,4E,6E)-5-Hydroxy-1,7-bis(benzo[b]furan-2-yl)hepta-1,4,6-trien-3-one] | 178 to 180 °C |
| COc1ccc(/C=C/C(=O)/C(F)=C(O)/C=C/c2ccc(OC)c(OC)c2)cc1OC [compound 8 of FIG. 2, (1E,4E,6E)-4-Fluoro-5-hydroxy-1,7-bis(3,4-dimethoxyphenyl)hepta-1,4,6-trien-3-one] | 145 to 146 °C |
| O=C(/C=C/c1cccc(OC(F)(F)F)c1)/C=C(O)\C=C\c1cccc(OC(F)(F)F)c1 [compound 15 of FIG. 35, (1E,4E,6E)-5-Hydroxy-1,7-bis(3-trifluoromethoxyphenyl)hepta-1,4,6-trien-3-one] | 68 to 70 °C |
| O=C(/C=C/c1ccc(F)c(F)c1F)/C=C(O)\C=C\c1ccc(F)c(F)c1F [compound 21 of FIG. 35, (1E,4E,6E)-5-Hydroxy-1,7-bis(2,3,4-trifluorophenyl)hepta-1,4,6-trien-3-one] | 156 to 158 °C |
| FC(F)(F)Sc1ccc(C=Cc2cc(C=Cc3ccc(SC(F)(F)F)cc3)n(-c3ccccc3)n2)cc1 [compound 28 of FIG. 43, 3,5-bis-(4-Trifluoromethylthiostyryl)-1-phenylpyrazole] | 119 to 121 °C |
| FC(F)(F)Sc1ccc(C=Cc2cc(C=Cc3ccc(SC(F)(F)F)cc3)n(-c3cccc(C(F)(F)F)c3)n2)cc1 [compound 29 of FIG. 43, 3,5-bis-(4-trifluoromethylthiostyryl)-1-(3-trifluoromethylphenyl)pyrazole] | 121 to 122 °C |
| Fc1ccc(C=Cc2cc(C=Cc3ccc(F)cc3)n(-c3ccccc3)n2)cc1 [compound 31 of FIG. 43, 3,5-bis-(4-Fluorostyryl)-1-phenylpyrazole] | 109 to 111 °C |
| N#Cc1ccc(-n2nc(C=Cc3ccc(F)cc3)cc2C=Cc2ccc(F)cc2)cc1 [compound 35 of FIG. 43, 3,5-bis-(4-Fluorostyryl)-1-(4-cyanophenyl)pyrazole] | 209 to 211 °C |
| COc1ccc(C=Cc2cc(C=Cc3ccc(OC)c(OC)c3OC)on2)c(OC)c1OC [compound 40 of FIG. 43, 3,5-bis-(2,3,4-Trimethoxystyryl)-isoxazole] | 136 to 137 °C |
| COc1cc(F)c(C=Cc2cc(C=Cc3cc(OC)c(OC)cc3F)n(-c3cc(F)cc(F)c3)n2)cc1OC [compound 25 of FIG. 43, 3,5-bis-(6-Fluoro-3,4-dimethoxystyryl)-1-(3,5-difluorophenyl) pyrazole] | 115 to 117 °C |
| COc1cc(F)c(C=Cc2cc(C=Cc3cc(OC)c(OC)cc3F)n(-c3ccccc3)n2)cc1OC [compound 22 of FIG. 43, 3,5-bis-(6-Fluoro-3,4-dimethoxystyryl)-1-phenylpyrazole] | 142 to 144 °C |
| Fc1ccc(C=Cc2cc(C=Cc3ccc(F)cc3)n(-c3ccc(OC(F)(F)F)cc3)n2)cc1 [compound 32 of FIG. 43, 3,5-bis-(4-Fluorostyryl)-1-(4-trifluoromethoxyphenyl)pyrazole] | 155 to 156 °C |
